One data set addresses T1, MDR1 (Homo sapiens, UniProt P08183).
T1 construct: measured the accumulation of doxorubicin in H295R cells; endogenous in cells; host or cells: H295R adrenocortical carcinoma cells
To be noted: cited from earlier work.

For data set [1], the system named is H295R cells. As to the kind of experiment: Cholesterol crystallization and extracellular cholesterol associated with cells. The format is cell-based. Conditions: compound in combination with ATR-101. How it is done: To quantify cholesterol crystallization, experiments were conducted that measured the total extracellular cholesterol that was associated with the cells. After culturing cells with the indicated compounds, the culture medium was removed. Medium lacking cholesterol was added to the cells, and the extracellular cholesterol that was released into the wash medium was collected after 30 seconds. To establish if the cholesterol that was released from the cells was exported by ABCA1, the wash step was performed in parallel using media with and without 50 μM glibenclamide, which inhibits ABCA1 activity. The total amount of cell-associated cholesterol that was released into the wash medium was measured using a fluorometric enzyme-linked assay (Cayman Chemical). Cholesterol esters were hydrolyzed using cholesterol esterase. Cholesterol was oxidized by cholesterol oxidase, producing hydrogen peroxide. The hydrogen peroxide was reacted with 10-acetyl-3,7-dihydroxyphenoxazine (ADHP) in the presence of horseradish peroxidase to produce resorufin. Resorufin fluorescence was measured using 555 nm exitation and 590 nm emission wavelengths in a SpectraMax M5 microplate reader (Molecular Devices).
The medium was removed and replaced with 50 μl serum-free medium supplemented with 5 μg/mL apo-AI (without or with 50 μM glyburide to detect ABCA1 transporter-dependent efflux) for either 30 sec or 1 h at 37 C in 5% CO2 atmosphere. After the indicated time, the supernatant, was transferred to a new 96-well plate and a fluorometric-base cholesterol detection assay cocktail was added.

For data set [2], the system named is H295R cells. As to the kind of experiment: Resazurin reducing potential. Conditions: 32 μM ATR-101 with 2 mM MβCD. The format is cell-based. How it is done:
FIG. 4F: […] The cells were cultured with DMSO vehicle or 32 μM ATR-101 alone, or together with 2 mM MβCD. Resazurin fluorescence intensity was measured using a microplate reader at the indicated times at 37 C. The background signal of wells without resazurin was subtracted. […] DMSO control, *P<0.05).

The test system of data set [3] is H295R cells. As to the kind of experiment: Visualization of cholesterol levels by filipin III binding. The class given is cell-based. In a few lines: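 Cells adhered 48 h, treated with compounds, fixed in 4% paraformaldehyde 20 min, then stained with 100 μg/ml filipin III for 2 h at 37 C in the dark and imaged. Esterification visualized after 2 h culture with 1 μM NBD-cholesterol following compound incubation.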

In data set [4] the test system is H295R cells. The data set is described as follows: Cellular ATP level (CellTiter-Glo).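 As to all read-outs here: ATP quantified by luminescence after lysing the cells in CellTiter-Glo reagent, with compound exposure at 37 °C under 5% CO2.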 Conditions: for ATP level, compound alone: serum-containing medium. For orientation: In ATP-based viability assays light output follows the ATP content of the culture.
Method: The ATP levels of cells were measured by lysis in CellTiter-Glo reagent (Promega), and measurement of the luminescence.
After 48 h, 20-80 μl of medium was removed from each well and replaced with 20 μl of each compound diluted to 6× of the final concentration in the culture medium to produce a final volume of 120 μl. The cells were incubated at 37 C in 5% CO2 atmosphere for a time ranging from 15 min to 24 h. The medium was removed and immediately replaced with 50 μl of CellTiter-Glo luminescence cell viability assay reagent (Promega). The cells were lysed by agitation at room temperature for 20 min in the dark. The luminescence was measured using a SpectraMax M5 microplate reader (Molecular Devices) with a 0.5 s acquisition time. The luminescence (RLU) values for control cells ranged from 5000 to 20000 RLU in all experiments, and were scaled by a factor of 0.001 to plot all graphs.
Data set [5] deals with H295R cells. The data set is described as follows: Caspase 3/7 activity (Apo-ONE). The class given is cell-based. To be noted: for caspase 3/7 activity, compound alone: serum-containing medium. The procedure: The samples were incubated for 18 h at room temperature in the dark. The fluorescence was measured using a SpectraMax M5 microplate reader with a 0.5 s acquisition time.

Data set [6] deals with H295R cells. The data set is described as follows: Cell morphology by phase contrast microscopy. The format is cell-based. Conditions: 30 h. The procedure:
FIG. 4E: […] The cells were cultured with DMSO vehicle (upper images) or with 40 μM ATR-101 (lower images) alone (left images), or in combination with 1.5 mM MβCD (middle images), or in combination with 40 μM cholesterol (right images). Cell morphology was visualized by phase contrast microscopy using a 10× objective. The images are representative of 5 fields under each set of culture conditions. The scale bars denote 100 μm.

The test system of a further data set is adrenal cortex. To be noted: WHHL rabbits; cited from earlier work.
Setting [7] is: H295R cells, serum-free, 50 μM each glibenclamide, benzamil, zosuquidar, 10 μM PD129337, 4 mM MβCD.
The mark [8] stands for this setting: H295R cells cultured with the compound together with ATR-101, 4 h.
The mark [9] stands for this setting: H295R cells cultured with the compound together with ATR-101, 24 h.

“Also recorded” adds a separate entry of the source.

Take `O[C@@H](COc1cccc2ncccc12)CN1CCN([C@@H]2c3ccccc3[C@@H]3[C@H](c4ccccc42)C3(F)F)CC1` [zosuquidar]: the MDR1 inhibition entry at MDR1 is given as “selectively inhibits MDR1”.
methyl-β-cyclodextrin [MβCD]: the “effect on cholesterol crystallization in cells cultured with ATR-101” value in the data set on H295R cells [1] is “did not produce crystals; also recorded: blocked”. Besides, the “effect on the increase in resazurin fluorescence caused by ATR-101” value with H295R cells [2] is given as “not inhibited”. Moreover, the “effect on cholesterol accumulation caused by ATR-101” value is recorded as “prevented cholesterol accumulation; also recorded: blocked the effects of ATR-101 on cholesterol accumulation; also recorded: did not have a higher level of filipin III binding to the plasma membrane” with H295R cells [3] (H295R cells cultured with the compound together with ATR-101, 4 h or 24 h) and “suppressed the cholesterol accumulation” in the data set on H295R cells [3] (H295R cells, serum-free medium, 100 μM ATR-101 with 4 mM MβCD, 4 h). Moreover, the “cholesterol level (filipin III binding), compound alone” value with H295R cells [3] (H295R cells, serum-free medium containing apoA-I, 4 h) is recorded as “reduced the basal level of cholesterol”. Moreover, in the data set with H295R cells [3] (setting [7]), the “cholesterol level with combinations of ABC transporter inhibitors” value was “reduced the cholesterol level”. The “effect on ATP depletion by ATR-101” value in the data set with H295R cells [4] (setting [8]) is “prevented ATP depletion; also recorded: suppressed the depletion of ATP”; in the data set with H295R cells [4] (setting [9]), “prevented ATP depletion”; with H295R cells [4] (H295R cells, serum-free medium containing apoA-I, together with ATR-101) it was “suppressed ATP depletion”. Further, the “effect on ATP depletion by ATR-101 in combination with ABC transporter inhibitors, substrates or U18666A” value in the data set on H295R cells [4] (H295R cells, 2 mM MβCD) was “suppressed ATP depletion”. Further, the “ATP level, compound alone” value in the data set on H295R cells [4] (H295R cells, 4 h) is listed as “little effect”; with H295R cells [4] (H295R cells, 24 h) it was “little effect”. The “effect on caspase 3/7 activation by ATR-101” value in the data set on H295R cells [5] (setting [8]) is “prevented ATP depletion and caspase activation; also recorded: suppressed”; with H295R cells [5] (setting [9]), “prevented ATP depletion and caspase activation”. The “caspase 3/7 activity, compound alone” value in the data set on H295R cells [5] (H295R cells, 4 h) is listed as “little effect”; in the data set on H295R cells [5] (H295R cells, 24 h) it was “little effect”. For the same molecule, the “effect on caspase activation by ATR-101” value in the data set on H295R cells [5] (H295R cells, serum-free medium, 100 μM ATR-101 with 4 mM MβCD) is “suppressed ATP depletion and caspase activation”. The “caspase 3/7 activity with combinations of ABC transporter inhibitors” value in the data set with H295R cells [5] (setting [7]) is recorded as “suppressed”. Further, in the data set with H295R cells [6] (40 μM ATR-101 with 1.5 mM MβCD or 40 μM cholesterol), the “effect on the changes in cell morphology caused by ATR-101” value is “remained flat and adherent for at least 30 h; also recorded: prevented”. In addition, the “cell morphology, compound alone” value with H295R cells [6] (phase contrast) is on record as “little effect”.
Turning to `Cc1ccc2oc(CN(Cc3ccccc3)C(=O)Nc3c(F)cc(F)cc3F)c(-c3ccc(Cl)cc3)c2c1` [FR145237], in the data set with adrenal cortex, the “adrenalytic effect in LDL deficient animals” value is given as “resistant”.

(Values after US10512667B2, “Compositions and methods for treating conditions related to adrenocortical activity and/or excessive steroid production” (The Regents of the University of Michigan, priority 2017, dated 2019).)
